Results published in patent US10406157B2, “Tetrahydropyridopyrazine modulators of GPR6” (Takeda Pharmaceutical Company Limited, priority 2017, dated 2019).

Experiments:
[1] = target: GPR6 receptor expressed in CHO-K1 cells (Homo sapiens (Human), UniProt P46095); assay: In vitro inhibition of constitutive cAMP activity of GPR6 receptor (EC50); format: cell-based; details: CHO-K1 cells expressing GPR6
Protocol: This cell-based assay measures the ability of test compounds to inhibit the constitutive cAMP activity of GPR6 receptor expressed in CHO-K1 cells. CHO cells are stably expressed with GPR6 receptor, whose expression is controlled by a tetracycline inducible element. The cells were cultured in medium containing F12K, 10% FBS, 1% Penn/Strep, 200 μg/mL Hygromycin. GPR6 receptor expression is induced for 20 hours with 2 μg/mL doxycycline (Sigma D9891) in growth media. After addition of doxycycline, the cells are plated at a density of 450-750 cells per well in 96-well half-volume black tissue culture plates (Costar) and placed in an incubator (37° C., 5% CO2) for 20 hours prior to cAMP assays.
Culture media is removed from the cells and they are washed with 50 μL/well of Ringer's Buffer (MgCl2 0.047 mg/mL, NaH2PO4 0.18 mg/mL, Na2HPO4 0.1 mg/mL, KCl 0.34 mg/mL, NaHCO31.26 mg/mL, D-glucose 1.8 mg/mL, NaCl 7 mg/mL; pH=7.4). The test compounds are suspended in DMSO, diluted in Ringer's Buffer containing 0.5% fatty acid free BSA plus 300 μM 3-isobutyl-1-methylxanthine (IBMX), and incubated on the cells for 45 minutes at 37° C. and 5% CO2. […] Then ULIGHT™-anti-cAMP solution from the LANCE® kit is added and incubated on a shaker at room temperature for 1 hour prior to homogeneous time resolved fluorescence (HTRF) detection in a PerkinElmer EnVision plate reader. […]

[2] = target: human hERG (Homo sapiens (Human), UniProt Q12809); assay: Inhibition of human hERG via automated whole cell patch clamp; format: cell-based; details: for IC50: CHO-K1 cells transfected with human hERG cDNA, patch clamp; for safety margin relative to inhibition of hERG: statement in words
Chain of human hERG (Q12809 whole entry): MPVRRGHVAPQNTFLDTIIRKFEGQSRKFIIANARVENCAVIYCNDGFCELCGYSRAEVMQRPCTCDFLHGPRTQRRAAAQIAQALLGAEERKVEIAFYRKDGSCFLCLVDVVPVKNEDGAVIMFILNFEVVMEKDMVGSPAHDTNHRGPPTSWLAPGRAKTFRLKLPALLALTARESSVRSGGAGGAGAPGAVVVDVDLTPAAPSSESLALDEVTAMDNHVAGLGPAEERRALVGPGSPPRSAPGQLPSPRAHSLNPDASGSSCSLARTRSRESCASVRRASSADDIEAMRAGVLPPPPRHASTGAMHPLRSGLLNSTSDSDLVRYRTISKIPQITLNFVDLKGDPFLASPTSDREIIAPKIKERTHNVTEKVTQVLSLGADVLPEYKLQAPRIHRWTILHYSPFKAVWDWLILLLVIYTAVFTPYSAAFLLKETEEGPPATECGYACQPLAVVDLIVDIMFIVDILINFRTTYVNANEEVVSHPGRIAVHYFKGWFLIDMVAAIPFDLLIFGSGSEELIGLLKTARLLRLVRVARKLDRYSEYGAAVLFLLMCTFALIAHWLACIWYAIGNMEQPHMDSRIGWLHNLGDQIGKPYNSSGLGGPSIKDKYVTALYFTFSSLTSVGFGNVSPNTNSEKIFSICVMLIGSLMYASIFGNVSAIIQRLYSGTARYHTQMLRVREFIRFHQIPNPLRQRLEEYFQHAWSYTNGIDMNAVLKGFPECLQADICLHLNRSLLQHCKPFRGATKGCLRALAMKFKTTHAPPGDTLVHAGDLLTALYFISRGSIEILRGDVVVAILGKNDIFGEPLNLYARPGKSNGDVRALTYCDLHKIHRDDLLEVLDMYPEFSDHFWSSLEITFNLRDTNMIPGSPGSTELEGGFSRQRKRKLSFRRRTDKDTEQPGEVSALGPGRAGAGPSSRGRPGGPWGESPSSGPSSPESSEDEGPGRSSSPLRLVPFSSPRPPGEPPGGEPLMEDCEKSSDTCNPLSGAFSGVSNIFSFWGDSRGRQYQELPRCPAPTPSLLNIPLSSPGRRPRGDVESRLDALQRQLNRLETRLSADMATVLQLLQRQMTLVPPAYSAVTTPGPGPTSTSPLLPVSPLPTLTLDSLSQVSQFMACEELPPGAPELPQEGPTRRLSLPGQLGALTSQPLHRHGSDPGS
Protocol: An automated whole cell patch-clamp system (QPATCH® 16) is used to record outward potassium currents from a single cell. The assay employs CHO-K1 (Chinese Hamster Ovary) cells stably transfected with human hERG cDNA. The cells are harvested by trypsinization and maintained in serum-free medium at room temperature before recording. The cells are washed and re-suspended in the extracellular solution before being applied to the automated patch-clamp sites. The test solutions are prepared in the aqueous extracellular solution (137 mM NaCl, 4 mM KCl, 1.8 mM CaCl2), 1 mM MgCl2, 10 mM D(+)-Glucose, 10 mM HEPES, pH adjusted to 7.4 with NaOH) on the day of patch-clamp assay. Seven concentrations (0.03, 0.1, 0.3, 1, 3, 10, and 30 μM) of the test compound are used to determine IC50. The aqueous intracellular solution contains 130 mM KCl, 10 mM NaCl, 1 mM MgCl2, 10 mM EGTA, 5 mM MgATP, and 10 mM HEPES (pH adjusted to 7.2 with KOH).
After whole cell configuration is achieved, the cell is held at −80 mV. A 50 ms pulse to −40 mV is delivered to measure the leaking current, which is subtracted from the tail current on-line. Then the cell is depolarized to +20 mV for 2 seconds, followed by a 1 second pulse to −40 mV to reveal the hERG tail current. This paradigm is delivered once every 5 seconds to monitor the current amplitude. The assay is conducted at room temperature. The extracellular solution (control) is applied first and the cell is stabilized in the solution for 5 minutes. Then the test compound is applied from low to high concentrations sequentially on the same cell. The cells are incubated with each test concentration for 5 minutes. A reference compound E-4031 (N-(4-(1-(2-(6-methylpyridin-2-yl)ethyl)piperidine-4-carbonyl)phenyl)methanesulfonamide) is tested concurrently at multiple concentrations to obtain an IC50 value. The percent inhibition of hERG channel is calculated by comparing the tail current amplitude before and after application of the compound (the current difference is normalized to the control).

[3] = target: human GPR6 (Homo sapiens (Human), UniProt P46095); details: membranes from CHO-K1 cells expressing human GPR6, 3H radioligand
Chain of human GPR6 (P46095 whole entry): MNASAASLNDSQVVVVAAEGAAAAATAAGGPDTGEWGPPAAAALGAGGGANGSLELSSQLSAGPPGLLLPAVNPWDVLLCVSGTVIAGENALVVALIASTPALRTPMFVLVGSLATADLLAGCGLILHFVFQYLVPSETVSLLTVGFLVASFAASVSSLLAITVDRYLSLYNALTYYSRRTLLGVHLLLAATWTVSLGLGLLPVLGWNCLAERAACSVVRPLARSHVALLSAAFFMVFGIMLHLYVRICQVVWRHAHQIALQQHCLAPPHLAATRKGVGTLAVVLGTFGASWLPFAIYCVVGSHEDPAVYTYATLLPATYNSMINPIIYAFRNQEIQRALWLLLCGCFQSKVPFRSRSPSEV
Protocol: A competition binding assay using a filtration-based format is used to study the binding characteristics of GPR6 inverse agonists. The method employs membranes prepared from CHO-K1 cells expressing human GPR6 cDNA driven by a doxycycline inducible promoter. Assay ready 96 well plates (651201, Greiner, USA) containing serial dilutions of test compounds (1 μL of test ligand/well) are prepared in DMSO using liquid handlers (5 μM, final assay top concentration). Assay buffer (50 mM Tris, pH 7.4, 50 mM NaCl, 6 mM MgCl2, fatty acid free 0.1% BSA, 1:100 proteinase inhibitor cocktail, Sigma USA) is added (39 μL/well) and the plates are mixed on a plate shaker for 10 minutes. GPR6-specific ^3H radioligand is prepared in assay buffer and is added to each well (40 μL, 2.4 nM final assay concentration).
To initiate the binding reactions, 40 μL of total membranes obtained from cells expressing human GPR6 receptors is added. The membranes are prepared in assay buffer and added per well to 15 μg/well final assay concentration. […] Scintillator sheet (1450-411, PerkinElmer, USA) is melted on filters and heat-sealed before CPM/well were quantified in MICROBETA® Trilux instrument (PerkinElmer, USA). […] The IC50 and Ki values are calculated using non-linear regression analysis in Prism (GraphPad, USA). Kd values are determined in standard radioligand saturation experiments.

[4] = tested on: 6-OHDA rat model; assay: 6-Hydroxydopamine (6-OHDA) rat model of Parkinson's disease, locomotor activity; format: in vivo
Protocol: Compounds that improve motor activity are considered promising as potential therapies for Parkinson's disease. Rats of the 6-OHDA model of Parkinson's disease received bilateral injections of 6-OHDA into the striatum and coordinates Anterior-Posterior (AP): Medial-Lateral (ML): Dorsal-Ventral (DV), 1±3, −5 mm relative to Bregma under anaesthesia. Rats were tested for locomotor activity at least 28 days later.
Locomotor activity was measured in an open field arena covered in an array of infrared beams. Beam breaks by the animals were processed using AMLOGGER software to monitor activity.

[5] = tested on: conscious beagle dogs; assay: Effects on the cardiovascular system using telemetry in conscious beagle dogs; format: in vivo, dog; details: single oral gavage doses 30, 100 and 300 mg/kg, compared to vehicle
From the text: The beagle dogs are equipped with telemetry devices from DSI PHYSIOTEL® Digital L21 transmitter implants according to the appropriate Charles River Laboratories, Montreal, QC Standard Operating Procedure (TB 12-04-06). The biopotential leads are placed in a modified lead II configuration. A minimum acclimation period of 6 days is allowed between animal arrival and the start of the surgical implantation of the telemetry devices in order to accustom the animals to the laboratory environment. A minimum recovery period of 4 weeks is allowed between surgeries and the start of treatment. […]
The parameters monitored include: heart rate derived from blood pressure, left ventricular pressure (LVP), and electrocardiogram waveforms; LVP (peak systolic and end-diastolic LVP and max positive/negative dP/dt values); electrocardiogram (PR interval (PR), RR variability (RR″), QRS complex (QRS), QT intervals, and QTcv calculated using the Van de Water equation QTcv=QT−87(60/HR−1)); and body temperature.
Marking of ECG segments is conducted using ECG Pattern Recognition software. A library for each animal is constructed of representative cycles from both the day and night cycle and is applied across monitoring occasions to ensure appropriate marking for quantitative assessments, in accordance with the appropriate Charles River Laboratories, Montreal, QC. […]

Chain of GPR6 receptor expressed in CHO-K1 cells (P46095 whole entry): as above

With `CC(=O)N1CCc2nc(N3CCC(Oc4ccc(F)cc4F)CC3)c(N[C@H]3CCOC3)nc2C1` [Compound A, (S)-1-(2-(4-(2,4-difluorophenoxy)piperidin-1-yl)-3-((tetrahydrofuran-3-yl)amino)-7,8-dihydropyrido[3,4-b]pyrazin-6(5H)-yl)ethan-1-one, reference compound] the pEC50 [1] was 7.2, the IC50 [2] was 505 nM and the “safety margin relative to inhibition of hERG” value [2] was “suboptimal safety margin”. For the same compound, the Ki [3] was 6 nM.

With `CC(=O)N1CCc2nc(N3CCC(Oc4ccc(F)cc4F)CC3)c(N[C@@H]3CCOC3)nc2C1` [Formula 1, (R)-1-(2-(4-(2,4-difluorophenoxy)piperidin-1-yl)-3-((tetrahydrofuran-3-yl)amino)-7,8-dihydropyrido[3,4-b]pyrazin-6(5H)-yl)ethan-1-one] the pEC50 [1] was 7.2, the IC50 [2] was 1970 nM and the “hERG inhibition potency compared with Compound A” value ([2]; comparison in words) was “significantly less potent inhibitor of hERG than Compound A”. The “safety margin relative to inhibition of hERG” value [2] was “improved SM-free”, the locomotor activity ([4]; 5 mg/kg and 10 mg/kg, compared to vehicle, after 50 minutes, FIG. 1) was “dose dependent improvement in locomotor activity” and the locomotor activity ([4]; 10 mg/kg dose) was “significant increase in activity”. For the same compound, the “arterial blood pressures, contractility, P-R interval, QRS complex, QT interval durations” value [5] was “No changes are observed” and the Ki [3] was 5.5 nM.
